Source: patent publication US20160318933A1, “FUSED PYRAZOLE DERIVATIVE” (SUMITOMO DAINIPPON PHARMA CO., LTD., priority 2013, published 2016)

Target: T1, human brain-derived dopamine D4 receptor (Homo sapiens, UniProt P21917)
T1 construct: expressed in transfected cells; host or cells: CHO (CHO-K1) or HEK293 cells
T1 sequence (P21917 1-419): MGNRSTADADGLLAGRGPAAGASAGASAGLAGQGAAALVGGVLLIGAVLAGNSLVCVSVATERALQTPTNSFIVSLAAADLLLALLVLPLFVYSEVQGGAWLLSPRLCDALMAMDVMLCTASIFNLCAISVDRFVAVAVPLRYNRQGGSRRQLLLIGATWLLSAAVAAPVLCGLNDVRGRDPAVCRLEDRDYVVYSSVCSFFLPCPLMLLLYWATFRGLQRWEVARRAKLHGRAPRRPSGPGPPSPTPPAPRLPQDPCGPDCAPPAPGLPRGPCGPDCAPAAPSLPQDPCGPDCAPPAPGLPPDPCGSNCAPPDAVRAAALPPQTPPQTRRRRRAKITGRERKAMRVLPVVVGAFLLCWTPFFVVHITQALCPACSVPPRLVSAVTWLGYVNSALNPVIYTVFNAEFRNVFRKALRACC
Assay: Agonistic activity in G protein dependent pathway of dopamine D4 receptor (aequorin intracellular calcium luminescence, FDSS)
Assay type: cell-based
Details: for EC50: concentration required to achieve a 50% response of Emax, CHO-K1 or HEK293 cells transfected with D4 receptor; for Emax: read-out: Maximal activity on D4 receptor (%)
From the text: The G protein dependent pathway is a pathway for transmitting signals in cells via a second messenger by stimulating a G protein through the binding of guanosine triphosphate (GTP) to the G protein. When GPCRs are activated by the binding of a ligand, a G protein binds to the GPCRs, and thereby GTP binds to a Gα subunit that is one of G protein subunits and a Gγβ subunit is dissociated. The activated Gα subunit regulates intracellular cAMP levels by the activation or inhibition of an adenylate cyclase, and regulates intracellular calcium levels by the activation of phospholipase C to transmit signals in cells.
The agonistic activities of the present compounds in the G protein dependent pathway were evaluated on the basis of intracellular calcium levels as follows. CHO-K1 or HEK293 cell lines transfected with D4 receptor genes were seeded in a 384-well plate, and incubated in a CO2 incubator at 37° C. for 24 hours, and then a solution of the present compound in DMSO was added into cells preloaded with coelenterazine to measure the change in luminescent signals with a FDSS (Hamamatsu Photonics K.K.). […] The agonistic activity of the present compound was calculated according to the measured luminescent signals, as the maximal activity (Emax) of the present compound. EC50 value was calculated as the concentration of the present compound required to achieve a 50% response of Emax.

Compound	EC50 [nM]	Emax [%]
Cc1ccc(CN2CCn3nc(-c4ncccc4C)c(C)c3C2)cc1 [Example 72]	33	65
Cc1ccc2c(CN3CCn4nc(-c5ncccc5C)cc4C3)n[nH]c2c1 [Example 101]	78	67
Fc1ccc(CN2CCn3nc(-c4ccccn4)cc3C2)cc1 [Example 2]	28	83
Cc1cccnc1-c1cc2n(n1)CCN(Cc1cccc(Cl)c1)C2 [Example 59]	36	58
Cc1cccnc1-c1cc2n(n1)CCN(Cc1ccc(C#N)cc1)C2 [Example 57]	83	77
Cc1cccnc1-c1cc2n(n1)CCN(Cc1cccc(C(F)(F)F)c1)C2 [Example 60]	99	59
Cc1cccnc1-c1cc2n(n1)CCN(Cc1n[nH]c3c(C)cccc13)C2 [Example 104]	18	67
Cc1cc(CN2CCn3nc(-c4ncccc4C)cc3C2)cnc1C [Example 188]	44	63
Cc1c(-c2ncccc2F)nn2c1CN(Cc1ccc(C(F)F)cn1)CC2 [Example 179]	64	38
Cc1cccnc1-c1cc2n(n1)CCN(Cc1ccc([N+](=O)[O-])cc1)C2 [Example 65]	20	69
Cc1cnc(CN2CCn3nc(-c4ncccc4C)cc3C2)c(F)c1 [Example 184]	116	51
COc1ccccc1-c1cc2n(n1)CCN(Cc1ccc(F)cc1F)C2 [Example 25, 5-(2,4-Difluorobenzyl)-2-(2-methoxyphenyl)-4,5,6,7-tetrahydropyrazolo[1,5-a]pyrazine]	100	57
Cc1cccnc1-c1cc2n(n1)CCN(Cc1ccc(C(F)F)cn1)C2 [Example 133]	5	47
Cc1cccnc1-c1cc2n(n1)CCN(Cc1ccc(F)c(C)n1)C2 [Example 135]	49	54
Cc1cccnc1-c1cc2n(n1)CCN(Cc1cnc(C(F)F)nc1)C2 [Example 196]	55	29
Cc1ccc(CN2CCn3nc(-c4ncccn4)cc3C2)cc1 [Example 176]	41	39
Cc1cccnc1-c1cc2n(n1)CCN(Cc1ccc(Cl)cn1)C2 [Example 97]	49	85
Cc1c(-c2ccccn2)nn2c1CN(Cc1ccc(C(F)(F)F)cn1)CC2 [Example 108]	1	66
N#Cc1ccc(CN2CCn3nc(-c4ccccn4)cc3C2)cc1 [Example 29]	38	48
O=C1CCc2ccc(CN3CCn4nc(-c5ccccn5)cc4C3)cc2N1 [Example 20]	51	42
Cc1cccc(CN2CCn3nc(-c4ncccc4C)c(C)c3C2)n1 [Example 115]	57	105

Compound	EC50 [nM]	Emax [%]
Cc1cccnc1-c1cc2n(n1)CCN(Cc1c[nH]c3ccccc13)C2 [Example 147]	33	59
Cc1cccnc1-c1cc2n(n1)CCN(Cc1ccc(C(F)F)nc1)C2 [Example 138]	50	49
Cc1cccnc1-c1cc2n(n1)CCN(Cc1ccc(C(F)F)cc1)C2 [Example 80]	18	70
Fc1cccnc1-c1cc2n(n1)CCN(Cc1ccc(C(F)(F)F)cn1)C2 [Example 163]	55	57
Fc1cccnc1-c1cc2n(n1)CCN(Cc1cnc(C(F)F)nc1)C2 [Example 199]	101	36
Cc1cccnc1-c1nn2c(c1C)CN(Cc1ccc(C(F)(F)F)cc1)CC2 [Example 71]	88	53
Cc1cccnc1-c1cc2n(n1)CCN(Cc1ccc3c(c1)NC(=O)CC3)C2 [Example 41]	46	54
Clc1c(-c2ccccn2)nn2c1CN(Cc1ccccc1)CC2 [Example 173, 5-Benzyl-3-chloro-2-(pyridin-2-yl)-4,5,6,7-tetrahydropyrazolo[1,5-a]pyrazine]	12	63
Cc1c(-c2ccccn2)nn2c1CN(Cc1ccccc1)CCC2 [Example 32, 5-Benzyl-3-methyl-2-(pyridin-2-yl)-5,6,7,8-tetrahydro-4H-pyrazolo[1,5-a][1,4]diazepine]	19	52
CN1Cc2ccc(CN3CCn4nc(-c5ccccn5)cc4C3)cc2C1 [Example 23, 5-[(2-Methyl-2,3-dihydro-1H-isoindol-5-yl)methyl]-2-(pyridin-2-yl)-4,5,6,7-tetrahydropyrazolo[1,5-a]pyrazine]	25	71
Cc1cccc(CN2CCn3nc(-c4ncccc4C)cc3C2)c1 [Example 54]	7	80
Cc1ccc(CN2CCn3nc(-c4ncccc4F)c(C)c3C2)nc1 [Example 120]	23	98
Cc1ccc(CN2CCn3nc(-c4ncccc4C)cc3C2)c(N)n1 [Example 43]	15	77
Cc1cccnc1-c1cc2n(n1)CCN(Cc1ccc3c(n1)CCCC3)C2 [Example 112]	41	66
Cc1c(-c2ccccn2)nn2c1CN(Cc1ccc(C(F)(F)F)nc1N)CC2 [Example 92]	60	64
Cc1c(-c2ccccn2)nn2c1CN(Cc1cn3c(n1)CCCC3)CC2 [Example 94]	42	49
Cc1c(-c2ccccn2)nn2c1CN(Cc1ccccc1)CC2 [Example 81]	0.7	89
Cc1ccccc1CN1CCn2nc(-c3ccccn3)cc2C1 [Example 26]	61	49
Cc1cccc(CN2CCn3nc(-c4ncccc4C)cc3C2)n1 [Example 156]	55	70
Cc1ccc(CN2CCn3nc(-c4ncccc4C)c(C)c3C2)nc1 [Example 114]	64	93
c1ccc(-c2cc3n(n2)CCN(Cc2ccc4cn[nH]c4c2)C3)nc1 [Example 15]	9.2	62

Compound	EC50 [nM]	Emax [%]
Cc1ccc(CN2CCn3nc(-c4ccccn4)cc3C2)nc1N [Example 98]	20	54
Fc1cccnc1-c1cc2n(n1)CCN(Cc1ccc3c(n1)CCCC3)C2 [Example 130]	20	71
Cc1cccnc1-c1cc2n(n1)CCN(Cc1cc3c(cn1)OCCC3)C2 [Example 136]	63	52
Cc1cccc(CN2CCn3nc(-c4ccccn4)cc3C2)c1 [Example 27]	0.5	62
Cc1cccnc1-c1cc2n(n1)CCN(Cc1cnc(C(F)(F)F)nc1)C2 [Example 195]	84	35
Cc1cccnc1-c1cc2n(n1)CCN(Cc1cccc(F)c1)C2 [Example 61]	34	57
Cc1cnc(CN2CCn3nc(-c4ncccc4C)c(C)c3C2)cn1 [Example 119]	145	71
Cc1cccnc1-c1cc2n(n1)CCN(Cc1cnn3c1CCCC3)C2 [Example 88]	93	54
Cc1c(-c2ncccc2F)nn2c1CN(Cc1ccc3c(n1)CCC3)CC2 [Example 125]	13	98
Cn1c(CN2CCn3nc(-c4ncccc4F)cc3C2)cc2ccccc21 [Example 150]	38	71
Cc1ccc(CN2CCn3nc(-c4ncccc4C)cc3C2)cc1C#N [Example 99]	1.1	77
Cc1cccnc1-c1cc2n(n1)CCN(Cc1cc3c(cn1)COC3)C2 [Example 182]	79	47
Cn1c(CN2CCn3nc(-c4ncccc4F)cc3C2)nc2ccccc21 [Example 164]	55	64
Cc1n[nH]c2ccc(CN3CCn4nc(-c5ccccn5)cc4C3)cc12 [Example 37]	62	54
Cc1cccnc1-c1cc2n(n1)CCN(Cc1cc3ccccc3[nH]1)C2 [Example 145]	45	52
Cc1cccnc1-c1cc2n(n1)CCN(Cc1cc3ccccn3n1)C2 [Example 90]	29	55
Cc1cccnc1-c1cc2n(n1)CCN(Cc1cc(OC(F)(F)F)ccc1F)C2 [Example 64]	108	42
Cc1c(-c2ncccc2F)nn2c1CN(Cc1ccc3c(n1)CCCC3)CC2 [Example 124]	47	76
Fc1cccnc1-c1cc2n(n1)CCN(Cc1ccc(C(F)(F)F)cc1)C2 [Example 68]	69	64
